{
  "source": "patent US6900019B1",
  "about": "“In-situ cell extraction and assay method” (Amersham Biosciences UK Limited, priority 1997, dated 2005)",
  "target": "T1, Interleukin-6 / anti-IL-6 antibody binding (Homo sapiens, UniProt P05231)",
  "T1 construct": "purchased Amersham RPN 2754",
  "T1 sequence (P05231 30-212)": "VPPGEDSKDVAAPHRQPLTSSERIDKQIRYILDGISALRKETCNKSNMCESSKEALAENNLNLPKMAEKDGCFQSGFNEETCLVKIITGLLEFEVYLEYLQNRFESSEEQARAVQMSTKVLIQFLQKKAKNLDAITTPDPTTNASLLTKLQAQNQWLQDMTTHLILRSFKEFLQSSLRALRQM",
  "assay": "IL-6 ELISA standard curves with lysis reagent and sequestrant",
  "details": "1% DTAB in standards",
  "protocol": "Working standards (10.24400 pg/ml IL-6) were prepared in polypropylene tubes using assay buffer containing 1% (w/v) DTAB. The biotinylated antibody was prepared in buffer containing 3% (w/v) alpha-cyclodextrin. 50 μl of biotinylated antibody (containing cyclodextrin) was added to the anti-IL-6 coated plate. 50 μl of working standard and cell lysate was pipetted into separate wells of the anti-IL-6 coated plate. Non-specific binding was measured in the absence of IL-6 (zero IL-6 standard). The order of addition of biotinylated antibody and samples/standards is not critical to the procedure. […] The optical density was determined with a microtitre plate spectrophotometer set at 450 nm. Interleukin-6 levels were determined using log/linear analysis with reference to a standard curve. […]\n(§1) Interleukin-6 standards (10.24-400 pg/ml) were prepared in standard diluent either in the presence (□) or absence (●) of lysis reagent (1% w/v DTAB). […] The plate was incubated for 2 hours at room temperature, and the optical density measured as described under the methods section.\nas §1",
  "data": [
    {"compound": "OC[C@H]1O[C@@H]2O[C@H]3[C@H](O)[C@@H](O)[C@@H](O[C@H]4[C@H](O)[C@@H](O)[C@@H](O[C@H]5[C@H](O)[C@@H](O)[C@@H](O[C@H]6[C@H](O)[C@@H](O)[C@@H](O[C@H]7[C@H](O)[C@@H](O)[C@@H](O[C@H]1[C@H](O)[C@H]2O)O[C@@H]7CO)O[C@@H]6CO)O[C@@H]5CO)O[C@@H]4CO)O[C@@H]3CO", "note": "[CD, alpha-cyclodextrin]", "values": [
      {"measurement": "antibody binding in the IL-6 ELISA", "setting": "3% (w/v) alpha-cyclodextrin in biotinylated antibody", "value": "Binding was restored"}
    ]},
    {"compound": "CCCCCCCCCCCC[N+](C)(C)C.[Br-]", "note": "[DTAB, dodecyl trimethyl ammonium bromide]", "values": [
      {"measurement": "antibody binding in the IL-6 ELISA", "setting": "zero cyclodextrin", "value": "inhibition of antibody binding"}
    ]}
  ]
}
